According to ChEMBL document CHEMBL1201862, “PubChem BioAssay data set” (2004):
pIC50: −log10 of the molar value. Calls of active or inactive are those of the source.

What was measured:
[1] = cells; type: functional
[2] = THP-1 cell cytotoxicity, dose response, cytotoxicity control for non-replicating M. tuberculosis project (AID 489025); type: functional
[3] = HepG2 cell cytotoxicity, dose response, cytotoxicity control for non-replicating M. tuberculosis project (AID 489018); type: functional; conditions: Mycobacterium tuberculosis
[4] = Vero E6 cell cytotoxicity, dose response, cytotoxicity control for non-replicating M. tuberculosis project, secondary assay (AID 492998); type: functional, VeroE6; conditions: Vero C1008
[5] = target: T1, RNA-binding protein pos-1 (Caenorhabditis elegans, UniProt G5EF15); assay: inhibitors of POS-1/mex-3 RNA binding, dose response, biochemical, fluorescence polarization (AID 1964);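 also: purified POS-1 fused to maltose binding protein made in E. coli; potency of compounds blocking POS-1 binding to fluorescent RNA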
T1 sequence (G5EF15 whole entry): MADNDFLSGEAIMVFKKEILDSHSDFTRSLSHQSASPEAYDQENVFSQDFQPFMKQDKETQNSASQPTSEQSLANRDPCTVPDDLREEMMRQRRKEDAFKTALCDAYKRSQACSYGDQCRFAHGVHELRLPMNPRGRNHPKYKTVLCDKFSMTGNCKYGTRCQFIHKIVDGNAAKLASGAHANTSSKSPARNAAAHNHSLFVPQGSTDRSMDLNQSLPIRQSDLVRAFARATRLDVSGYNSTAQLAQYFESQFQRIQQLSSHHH

[6] = target: T2, ORF 73 (Human herpesvirus 8, UniProt O40947); assay: inhibitors of C-LANA binding to LBS DNA, dose response, biochemical, fluorescence polarization, cherry-picked samples (AID 504725); parameters: species or system Human gammaherpesvirus 8;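 also: fluorescence polarization of a labeled DNA duplex reporting LANA DNA binding; potency is for inhibitors that block LANA binding to the DNA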
T2 sequence (O40947 whole entry): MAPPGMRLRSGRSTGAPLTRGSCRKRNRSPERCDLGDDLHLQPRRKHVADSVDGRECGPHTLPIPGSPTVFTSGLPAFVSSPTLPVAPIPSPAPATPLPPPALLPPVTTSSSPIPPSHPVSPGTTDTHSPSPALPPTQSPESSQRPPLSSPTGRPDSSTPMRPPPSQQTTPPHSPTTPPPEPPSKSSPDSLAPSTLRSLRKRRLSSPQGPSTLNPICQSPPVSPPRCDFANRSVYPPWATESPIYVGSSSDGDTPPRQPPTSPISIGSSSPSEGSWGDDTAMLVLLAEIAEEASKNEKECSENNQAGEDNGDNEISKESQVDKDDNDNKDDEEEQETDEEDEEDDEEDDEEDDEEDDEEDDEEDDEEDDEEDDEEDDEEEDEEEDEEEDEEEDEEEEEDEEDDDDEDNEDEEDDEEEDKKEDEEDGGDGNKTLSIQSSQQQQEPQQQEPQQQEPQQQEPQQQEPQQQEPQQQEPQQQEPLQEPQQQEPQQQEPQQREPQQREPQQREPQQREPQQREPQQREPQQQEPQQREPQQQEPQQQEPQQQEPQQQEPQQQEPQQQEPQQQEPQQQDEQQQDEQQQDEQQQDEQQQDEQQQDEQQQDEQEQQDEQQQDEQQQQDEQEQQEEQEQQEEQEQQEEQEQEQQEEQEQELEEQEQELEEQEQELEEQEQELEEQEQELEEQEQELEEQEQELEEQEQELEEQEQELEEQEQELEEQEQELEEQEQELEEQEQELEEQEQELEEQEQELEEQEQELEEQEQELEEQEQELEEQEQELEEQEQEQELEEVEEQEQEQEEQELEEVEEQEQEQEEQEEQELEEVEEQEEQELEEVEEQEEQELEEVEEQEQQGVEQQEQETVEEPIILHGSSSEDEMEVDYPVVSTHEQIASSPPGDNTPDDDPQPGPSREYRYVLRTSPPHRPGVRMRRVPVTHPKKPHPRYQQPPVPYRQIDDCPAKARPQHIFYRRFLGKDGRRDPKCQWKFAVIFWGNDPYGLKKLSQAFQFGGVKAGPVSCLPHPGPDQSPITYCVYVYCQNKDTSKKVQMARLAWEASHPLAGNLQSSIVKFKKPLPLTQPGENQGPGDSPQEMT

[7] = target: T3, Rac GTPase-activating protein 1 (Homo sapiens, UniProt Q9H0H5); assay: MgcRacGAP GTPase-activating activity inhibitors, confirmation, biochemical, ADP Hunter fluorescence, primary and confirmatory (AID 624330); type: functional
T3 sequence (Q9H0H5 whole entry): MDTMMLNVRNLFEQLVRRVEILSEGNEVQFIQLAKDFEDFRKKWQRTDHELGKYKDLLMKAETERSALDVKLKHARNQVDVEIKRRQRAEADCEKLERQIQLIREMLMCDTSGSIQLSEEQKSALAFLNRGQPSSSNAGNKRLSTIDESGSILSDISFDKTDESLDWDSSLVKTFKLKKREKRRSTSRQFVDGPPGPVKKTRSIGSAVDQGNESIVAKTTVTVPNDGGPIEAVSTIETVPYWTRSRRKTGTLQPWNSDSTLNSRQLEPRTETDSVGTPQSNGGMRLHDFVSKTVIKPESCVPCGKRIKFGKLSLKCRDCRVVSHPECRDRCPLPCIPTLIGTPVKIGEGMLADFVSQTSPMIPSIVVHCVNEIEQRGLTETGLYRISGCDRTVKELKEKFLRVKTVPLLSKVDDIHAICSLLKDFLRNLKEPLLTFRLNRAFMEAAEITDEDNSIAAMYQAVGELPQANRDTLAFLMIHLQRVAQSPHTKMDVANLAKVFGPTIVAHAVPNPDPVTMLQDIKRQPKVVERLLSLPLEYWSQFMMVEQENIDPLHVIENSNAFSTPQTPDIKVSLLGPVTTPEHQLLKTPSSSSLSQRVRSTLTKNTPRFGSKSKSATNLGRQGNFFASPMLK

[8] = target: T4, Zinc finger protein mex-5 (Caenorhabditis elegans, UniProt Q9XUB2); assay: MEX-5/TCR-2 RNA interaction inhibitors, dose response, biochemical, C. elegans, fluorescence polarization (AID 1960)
T4 sequence (Q9XUB2 whole entry): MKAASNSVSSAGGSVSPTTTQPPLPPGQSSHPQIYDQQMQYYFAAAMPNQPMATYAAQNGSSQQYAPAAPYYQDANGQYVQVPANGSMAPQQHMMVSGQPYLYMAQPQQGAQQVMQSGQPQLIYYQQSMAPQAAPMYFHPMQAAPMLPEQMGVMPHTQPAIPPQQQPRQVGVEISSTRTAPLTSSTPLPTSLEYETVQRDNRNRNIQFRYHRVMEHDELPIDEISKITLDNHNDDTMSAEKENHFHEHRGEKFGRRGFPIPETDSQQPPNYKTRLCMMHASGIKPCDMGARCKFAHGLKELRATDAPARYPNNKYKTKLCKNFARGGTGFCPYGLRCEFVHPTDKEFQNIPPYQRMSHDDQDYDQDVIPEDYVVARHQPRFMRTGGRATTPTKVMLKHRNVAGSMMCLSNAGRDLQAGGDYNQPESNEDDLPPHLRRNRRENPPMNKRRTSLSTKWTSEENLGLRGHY

[9] = target: Genome polyprotein (dengue virus type 2, UniProt P29990); assay: Dengue-2 NS5 methyltransferase inhibitors, primary screen, biochemical, confirmation dose response (AID 588689); type: functional
Sequence of Genome polyprotein (P29990 2492-3391 limits assumed): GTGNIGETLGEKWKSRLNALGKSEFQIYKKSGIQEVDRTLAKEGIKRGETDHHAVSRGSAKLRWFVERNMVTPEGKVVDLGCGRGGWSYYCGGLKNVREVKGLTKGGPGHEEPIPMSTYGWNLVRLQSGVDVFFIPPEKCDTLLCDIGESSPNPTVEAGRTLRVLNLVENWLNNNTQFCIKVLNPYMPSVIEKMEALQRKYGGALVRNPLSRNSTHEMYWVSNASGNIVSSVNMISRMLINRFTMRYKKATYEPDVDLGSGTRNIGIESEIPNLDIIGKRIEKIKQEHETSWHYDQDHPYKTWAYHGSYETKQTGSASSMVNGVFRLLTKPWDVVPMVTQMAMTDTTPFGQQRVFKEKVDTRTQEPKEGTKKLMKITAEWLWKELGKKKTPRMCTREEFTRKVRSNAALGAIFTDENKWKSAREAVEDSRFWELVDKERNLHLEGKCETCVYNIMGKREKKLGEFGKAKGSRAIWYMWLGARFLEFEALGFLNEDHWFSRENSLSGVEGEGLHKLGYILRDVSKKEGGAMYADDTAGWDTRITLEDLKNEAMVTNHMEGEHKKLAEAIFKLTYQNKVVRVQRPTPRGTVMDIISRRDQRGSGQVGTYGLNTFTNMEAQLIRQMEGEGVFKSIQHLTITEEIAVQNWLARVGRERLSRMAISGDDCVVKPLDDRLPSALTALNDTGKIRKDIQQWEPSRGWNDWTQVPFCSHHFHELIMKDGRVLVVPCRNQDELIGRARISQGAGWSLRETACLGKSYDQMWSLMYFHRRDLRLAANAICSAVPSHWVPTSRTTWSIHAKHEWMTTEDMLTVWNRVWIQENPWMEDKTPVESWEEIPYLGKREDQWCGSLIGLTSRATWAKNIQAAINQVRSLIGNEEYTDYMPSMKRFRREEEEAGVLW

[10] = target: Beta-galactosidase (Escherichia coli, UniProt Q8VNN2); type: functional
Sequence of Beta-galactosidase (Q8VNN2 whole entry): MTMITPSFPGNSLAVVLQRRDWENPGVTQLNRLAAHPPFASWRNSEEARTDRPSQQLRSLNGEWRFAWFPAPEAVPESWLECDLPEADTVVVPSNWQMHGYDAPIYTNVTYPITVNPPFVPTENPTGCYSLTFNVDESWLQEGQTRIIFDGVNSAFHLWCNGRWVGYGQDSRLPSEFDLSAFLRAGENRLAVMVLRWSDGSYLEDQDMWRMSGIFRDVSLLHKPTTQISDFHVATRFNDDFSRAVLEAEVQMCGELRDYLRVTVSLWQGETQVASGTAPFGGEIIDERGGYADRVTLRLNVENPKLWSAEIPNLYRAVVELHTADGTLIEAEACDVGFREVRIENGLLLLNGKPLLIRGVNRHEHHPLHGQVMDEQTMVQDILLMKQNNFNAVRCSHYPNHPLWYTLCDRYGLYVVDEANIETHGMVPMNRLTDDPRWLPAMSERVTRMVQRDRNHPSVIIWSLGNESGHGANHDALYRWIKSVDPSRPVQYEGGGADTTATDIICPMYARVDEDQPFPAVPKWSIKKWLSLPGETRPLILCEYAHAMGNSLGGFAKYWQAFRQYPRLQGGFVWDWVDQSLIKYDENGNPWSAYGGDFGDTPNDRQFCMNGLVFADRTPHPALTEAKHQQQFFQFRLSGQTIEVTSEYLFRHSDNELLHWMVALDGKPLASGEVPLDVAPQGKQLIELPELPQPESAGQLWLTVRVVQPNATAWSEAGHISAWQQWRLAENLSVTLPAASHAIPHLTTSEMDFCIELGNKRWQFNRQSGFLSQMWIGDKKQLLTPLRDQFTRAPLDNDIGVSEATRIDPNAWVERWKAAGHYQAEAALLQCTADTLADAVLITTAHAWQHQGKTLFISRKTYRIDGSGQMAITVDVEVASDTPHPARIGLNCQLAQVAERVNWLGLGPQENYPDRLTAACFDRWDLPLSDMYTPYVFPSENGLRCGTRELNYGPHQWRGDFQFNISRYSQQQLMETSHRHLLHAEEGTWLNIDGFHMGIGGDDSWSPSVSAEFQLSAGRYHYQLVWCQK

[11] = target: T5, Kappa-type opioid receptor (Homo sapiens, UniProt P41145); type: functional
T5 sequence (P41145 whole entry): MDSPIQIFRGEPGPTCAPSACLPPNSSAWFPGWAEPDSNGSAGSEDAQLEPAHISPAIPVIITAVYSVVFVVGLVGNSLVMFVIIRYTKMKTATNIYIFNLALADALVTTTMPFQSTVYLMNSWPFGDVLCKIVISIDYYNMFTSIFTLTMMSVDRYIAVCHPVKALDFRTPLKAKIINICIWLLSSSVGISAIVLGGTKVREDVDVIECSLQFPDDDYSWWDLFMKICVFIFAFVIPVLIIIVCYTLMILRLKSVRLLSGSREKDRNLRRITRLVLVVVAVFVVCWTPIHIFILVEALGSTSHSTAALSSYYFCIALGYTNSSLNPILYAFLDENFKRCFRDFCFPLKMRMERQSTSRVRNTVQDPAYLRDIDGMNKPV

[12] = target: T5, Kappa-type opioid receptor; type: functional; remark: listed apart in the source
[13] = target: T6, Microphthalmia-associated transcription factor (Homo sapiens, UniProt O75030); assay: TRPM1 promoter luciferase signal decrease, dose response, MITF inhibitor project, cell-based, SK-MEL-5, cherry-picked, set 3 (AID 493073); type: functional
T6 sequence (O75030 whole entry): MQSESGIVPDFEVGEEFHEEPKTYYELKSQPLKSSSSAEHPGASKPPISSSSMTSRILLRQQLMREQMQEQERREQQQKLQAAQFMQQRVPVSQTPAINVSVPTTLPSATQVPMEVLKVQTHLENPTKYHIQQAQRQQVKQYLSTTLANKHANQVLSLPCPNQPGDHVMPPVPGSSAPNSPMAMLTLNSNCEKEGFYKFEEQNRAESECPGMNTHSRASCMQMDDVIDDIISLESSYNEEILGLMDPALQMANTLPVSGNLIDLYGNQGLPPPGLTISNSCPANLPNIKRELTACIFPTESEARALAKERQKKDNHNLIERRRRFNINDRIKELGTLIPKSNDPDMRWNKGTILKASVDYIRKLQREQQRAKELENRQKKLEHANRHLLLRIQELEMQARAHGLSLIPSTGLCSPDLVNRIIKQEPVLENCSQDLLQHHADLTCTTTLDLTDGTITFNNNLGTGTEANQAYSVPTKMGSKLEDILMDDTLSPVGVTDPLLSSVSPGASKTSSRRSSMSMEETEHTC

[14] = target: Eukaryotic translation initiation factor 4H (Homo sapiens, UniProt Q15056); assay: eIF4H inhibition in translation initiation, SAR follow-up (AID 435011); type: functional
[15] = target: Polyadenylate-binding protein 1 (Homo sapiens, UniProt P11940); assay: PABP inhibition in translation initiation, SAR follow-up (AID 435018); type: functional
Sequence of Polyadenylate-binding protein 1 (P11940 whole entry): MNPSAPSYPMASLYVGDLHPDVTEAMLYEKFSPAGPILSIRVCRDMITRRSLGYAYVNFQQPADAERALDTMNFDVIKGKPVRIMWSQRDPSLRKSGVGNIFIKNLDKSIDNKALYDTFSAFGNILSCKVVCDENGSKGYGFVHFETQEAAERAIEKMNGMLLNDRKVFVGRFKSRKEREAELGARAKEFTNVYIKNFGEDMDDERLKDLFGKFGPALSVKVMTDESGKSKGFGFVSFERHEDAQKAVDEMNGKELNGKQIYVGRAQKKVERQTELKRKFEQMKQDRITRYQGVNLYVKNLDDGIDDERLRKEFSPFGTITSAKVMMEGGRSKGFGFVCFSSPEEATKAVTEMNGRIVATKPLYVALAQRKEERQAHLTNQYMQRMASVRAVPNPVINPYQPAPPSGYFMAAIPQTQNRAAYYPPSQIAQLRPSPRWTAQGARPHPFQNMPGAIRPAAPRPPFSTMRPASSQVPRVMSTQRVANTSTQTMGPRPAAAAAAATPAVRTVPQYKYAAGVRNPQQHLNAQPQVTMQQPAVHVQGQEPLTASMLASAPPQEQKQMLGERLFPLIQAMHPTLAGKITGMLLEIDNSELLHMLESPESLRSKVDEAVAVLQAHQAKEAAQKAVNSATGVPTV

[16] = target: T7, Streptokinase A (Streptococcus pyogenes serotype M1, UniProt P10520); assay: S. pyogenes streptokinase expression inhibitors, potency, dose response, plasminogen activation absorbance, OD405 (AID 1914); type: functional, Streptococcus pyogenes M1 GAS;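 also: secreted streptokinase activity via plasminogen activation per viability signal from cell pellet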
T7 sequence (P10520 whole entry): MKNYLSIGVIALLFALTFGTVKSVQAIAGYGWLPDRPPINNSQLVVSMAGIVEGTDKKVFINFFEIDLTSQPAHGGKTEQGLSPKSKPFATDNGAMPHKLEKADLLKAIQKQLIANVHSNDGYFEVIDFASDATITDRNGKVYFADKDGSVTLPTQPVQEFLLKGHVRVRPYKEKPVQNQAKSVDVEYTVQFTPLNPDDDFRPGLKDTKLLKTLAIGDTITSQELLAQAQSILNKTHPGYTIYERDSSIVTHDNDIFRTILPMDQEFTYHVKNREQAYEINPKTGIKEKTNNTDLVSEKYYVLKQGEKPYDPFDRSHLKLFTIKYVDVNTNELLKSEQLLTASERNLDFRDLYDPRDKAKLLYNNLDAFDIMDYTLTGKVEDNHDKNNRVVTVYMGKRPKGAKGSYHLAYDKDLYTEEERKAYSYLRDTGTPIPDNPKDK

[17] = test system: Streptococcus; assay: Group A Streptococcus viability loss, dose response, counter-screen for streptokinase expression inhibitor project, luminescence, BacTiterGlo (AID 1915); type: functional, organism-based;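 also: potency for reduction of bacterial viability or growth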
[18] = test system: H9c2; assay: cells; type: functional, cell-based; conditions: Rattus norvegicus, H9c2, Myocardium;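 also: confirmatory concentration-response retest of ultra-high-throughput screening hits for modulation of myocardial damage; cell death induced by hydrogen peroxide oxidative stress; compound pretreatment for 60 min then peroxide exposure for 2 h; potency is for protecting the cells against peroxide damage rather than for killing them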
[19] = test system: Streptococcus sp. 'group A'; assay: growth inhibition of control SK(-) GAS strain, dose response, counter-screen for streptokinase expression inhibitor project, luminescence, kanamycin, BacTiterGlo, confirmation (AID 1900); type: functional, organism-based

O=C(Nc1nnc(-c2ccco2)o1)c1ccc([N+](=O)[O-])s1
IC50 [1]: 9.81 µM (active) | CC50 [2]: 17.4 µM (active) | CC50 [3]: > 20 µM (active) | CC50 [4]: 11.6 µM (active)

O=C(O)c1ccc2c(c1)C(=O)/C(=C\c1ccco1)C2=O
EC50 [5]: > 300 µM (not active) | AC50 [6]: 133 µM (active) | IC50 [7]: 89.2 µM (active) | EC50 [8]: 32.1 µM (active) | IC50 [9]: 12.3 µM (active)

CC1=C/C(=N\NC(=S)Nc2cccnc2)CC(C)(C)C1
EC50 [10]: > 31.5 µM (inactive) | IC50 [11]: 9.46 µM (active) | pIC50 [12]: < 4.49 | AC50 [13]: 11 µM (active)

COc1ccc(Cl)cc1NC(=O)COC(=O)c1ccc(NC(N)=O)cc1
IC50 [14]: > 100 µM (inactive) | IC50 [15]: > 100 µM (inactive)

CCCn1c(NC(=O)c2ccccc2)nc2ccccc21
IC50 [1]: 1.75 µM (active) | EC50 [16]: > 150 µM (not active) | CC50 [2]: 35.9 µM (active) | EC50 [17]: > 150 µM (not active) | IC50 [18]: > 79 µM (inactive) | CC50 [3]: > 20 µM (active) | CC50 [4]: > 20 µM (active) | EC50 [19]: 2.56 µM (active)
